The values below come from US9062004B2, “Cannabinoid-2 agonists” (Allergan, Inc., priority 2010, dated 2015).

Experiment [1] deals with human CB2 cannabinoid receptor (Homo sapiens (Human), UniProt P34972). Kind of experiment: Radioligand binding assay, CB2 ([3H]-CP 55,940 competition). Particulars: for CB2 Selectivity: CB2 versus CB1 binding (ratio of CB1 IC50 to CB2 IC50); for IC50: plasma membranes of HEK 293 EBNA cells transfected with human CB2, 0.72 nM [3H]-CP 55,940, NA = not active. The procedure:
(§1) A. Radioligand Binding Assay
(§2) Plasma membranes prepared from HEK 293 EBNA cells transfected with human CB1 or CB2 cannabinoid receptors ([…] protein, receptor concentration; PerkinElmer) were used for the radioligand binding studies. The composition of incubation buffer for CB1 assay was 50 mM Tris base, 2.5 mM EDTA, 5 mM MgCl2 and 0.5 mg/ml fatty acid free BSA and for CB2 assay was 50 mM Tris base, 2.5 mM EGTA, 5 mM MgCl2 and 1 mg/ml fatty acid free BSA; pH was adjusted to 7.4 by adding 1N HCl. Plasma membranes were diluted with incubation buffer to provide a final protein concentration of 2.4 μg (CB1) or 8 μg (CB2) per well in non-binding surface polystyrene 96-well assay plates (Corning). Compound solutions were prepared in silanized glass tubes and dispensed using pipette tips with SUPERSLIK™ surface. Competition studies were performed using a final concentration of 0.72 nM [^3H]-CP 55,940 (100-180 Ci/mmol, specific activity; PerkinElmer) against test compounds. Non-specific binding was determined using 10 uM of unlabeled CP 55,940. Incubations were performed in 96-well assay plates at a final volume of 200 ul for 90 min (CB1) or 60 min (CB2) at room temperature. Binding reactions were terminated by the addition of ice-cold incubation buffer and rapid filtration through a glass fiber filter using a cell harvester (Inotech). This was followed by 8 additional washes. The glass fiber filter (0.26 mm thickness, 1-1.5 um retention; Inotech) was presoaked in cold incubation buffer containing 0.05% polyethylenimine. The filters were oven-dried at 50° C. for 60 min and counting performed using a Beckman Coulter LS 6500 Multi-Purpose Scintillation Counter (Beckman-Coulter). Binding was determined in duplicate for at least 4 separate experiments.

Experiment [2] addresses human CB1 cannabinoid receptor (Homo sapiens (Human), UniProt P21554). Kind of experiment: Radioligand binding assay, CB1 ([3H]-CP 55,940 competition). The note with it: plasma membranes of HEK 293 EBNA cells transfected with human CB1; 0.72 nM [3H]-CP 55,940; NA = not active. The procedure:
as §1, §2

Experiment [3] has as its system mouse isolated vas deferens. Kind of experiment: Mouse isolated vas deferens (MVD) bioassay, electrically stimulated contractions. It counts as cell-based. The note with it: for EC50: Mus musculus.
The mark [4] stands for this setting: vas deferens of male Swiss Webster mice, electrically evoked contractions, NA = not active, read-out: MVD Assay EC50.
Where [5] appears, read: vas deferens of male Swiss Webster mice, electrically evoked contractions, NA = not active.

SMILES strings stand for the structures. Like-named read-outs stand apart in the source and are kept apart here. Some results are limits rather than exact numbers.

human CB2 cannabinoid receptor, sequence (P34972 whole entry): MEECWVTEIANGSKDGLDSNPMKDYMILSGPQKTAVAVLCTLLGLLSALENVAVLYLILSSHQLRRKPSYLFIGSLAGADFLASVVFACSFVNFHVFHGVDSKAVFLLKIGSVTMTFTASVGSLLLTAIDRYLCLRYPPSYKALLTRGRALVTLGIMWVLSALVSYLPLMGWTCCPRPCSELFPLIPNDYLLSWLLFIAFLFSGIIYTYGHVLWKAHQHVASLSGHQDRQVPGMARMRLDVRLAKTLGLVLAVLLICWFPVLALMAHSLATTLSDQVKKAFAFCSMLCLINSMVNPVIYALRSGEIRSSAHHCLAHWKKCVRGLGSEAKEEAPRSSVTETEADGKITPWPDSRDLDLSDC
human CB1 cannabinoid receptor, sequence (P21554 whole entry): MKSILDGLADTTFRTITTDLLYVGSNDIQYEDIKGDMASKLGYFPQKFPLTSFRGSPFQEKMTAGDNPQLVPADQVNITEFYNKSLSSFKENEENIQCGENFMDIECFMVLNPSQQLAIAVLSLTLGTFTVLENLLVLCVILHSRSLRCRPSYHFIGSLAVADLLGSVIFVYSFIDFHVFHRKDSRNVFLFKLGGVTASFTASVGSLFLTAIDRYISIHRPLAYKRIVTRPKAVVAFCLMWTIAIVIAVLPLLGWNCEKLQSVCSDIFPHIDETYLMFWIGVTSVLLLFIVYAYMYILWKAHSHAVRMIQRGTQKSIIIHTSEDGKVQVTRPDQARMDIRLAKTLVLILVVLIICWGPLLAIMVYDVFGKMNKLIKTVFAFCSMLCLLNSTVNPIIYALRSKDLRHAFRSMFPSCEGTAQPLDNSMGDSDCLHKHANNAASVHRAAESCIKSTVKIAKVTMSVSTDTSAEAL

With `CC1(C)CC(n2ncc(NCCN3CCOCC3)c(Cl)c2=O)CC(C)(C)C1` [Compound 11, 4-Chloro-5-(2-morpholin-4-ylethyl-amino)-2-(3,3,5,5-tetramethyl-cyclohexyl)pyridazin-3-one], in experiment [1], the “CB2 Selectivity” value is reported as 48 and the half-inhibitory concentration (IC50) (as a rule, the concentration that gives 50% inhibition) worked out at 0.083 µM. In experiment [2], the IC50 is 3.98 µM. Moreover, the EC50 (commonly the concentration giving half of the maximal effect) in experiment [3] (setting [4]) was 320 nM.
`CCN(CC)CCNc1cnn(C2CC(C)(C)CC(C)(C)C2)c(=O)c1Cl` [Compound 32, 4-Chloro-5-(2-diethylaminoethylamino)-2-(3,3,5,5-tetramethyl-cyclohexyl)pyridazin-3-one] had a 50% inhibitory concentration (IC50) in experiment [1] of 1.29 µM. In addition, the concentration giving a half-maximal response (EC50) in experiment [3] (setting [4]) was determined as 10000 nM.
Compound `CN(C)c1cnn(-c2cc(C(F)(F)F)cc(C(F)(F)F)c2)c(=O)c1Cl` [Compound 21, 2-(3,5-Bistrifluoromethylphenyl)-4-chloro-5-dimethylaminopyridazin-3-one] registered an IC50 in experiment [1] greater than 10 µM. In experiment [3] (setting [4]), the EC50 is greater than 10000 nM.
For `CCCNc1cnn(-c2cc(C)cc(C)c2)c(=O)c1Cl` [Compound 16, 4-Chloro-2-(3,5-dimethylphenyl)-5-propylaminopyridazin-3-one], the IC50 was 10 µM in experiment [1] and greater than 10 µM in experiment [2]. For the same compound, the concentration for a half-maximal effect (EC50) in experiment [3] (setting [4]) is greater than 10000 nM.
Take `CC1(C)CC(n2ncc(Cl)c(Cl)c2=O)CC(C)(C)C1` [Compound 2, 4,5-Dichloro-2-(3,3,5,5-tetramethyl-cyclohexyl)pyridazin-3-one]: in experiment [1], the “CB2 Selectivity” value was greater than 26 and the half-maximal inhibitory concentration (IC50) came to 0.389 µM. This compound yielded an IC50 in experiment [2] greater than 10 µM. Moreover, the half-maximal effective concentration (EC50) in experiment [3] (setting [4]) was greater than 10000 nM.
In the same order, the values of `CN(C)CCn1ncc2c(=O)n(C3CC(C)(C)CC(C)(C)C3)ncc21` [Compound 38, 1-(2-Dimethylaminoethyl)-5-(3,3,5,5-tetramethylcyclohexyl)pyrazolo[3,4-d]pyridazin-4-one] are 38, 0.105 µM, 3.98 µM and 130 nM.
In the case of `Cc1cc(C)cc(-n2ncc(N(C)C)c(Cl)c2=O)c1` [Compound 17, 4-Chloro-5-dimethylamino-2-(3,5-dimethylphenyl)-pyridazin-3-one], in experiment [1], the IC50 is greater than 10 µM.
Take `CCCn1ncc2c(=O)n(C3CC(C)(C)CC(C)(C)C3)ncc21` [Compound 34, 1-Propyl-5-(3,3,5,5-tetramethyl-cyclohexyl)pyrazolo[3,4-d]pyridazin-4-one]: the “CB2 Selectivity” value in experiment [1] was 15. For the same compound, the values for the 50% inhibitory concentration (IC50) in experiment [1] and in experiment [2] were 0.017 µM and 0.257 µM, respectively. The 50% effective concentration (EC50) in experiment [3] (read-out: MVD Assay EC50 (nM)) was found to be 21 nM.
On to `CCCNc1cnn(-c2ccccc2)c(=O)c1Cl` [Compound 9, 4-Chloro-2-phenyl-5-propylamino-pyridazin-3-one], for which, in experiment [1], the IC50 was greater than 10 µM. Besides, the EC50 in experiment [3] (setting [4]) was greater than 10000 nM.
In the case of `Cc1cc(C)cc(-n2ncc(NCCN3CCOCC3)c(Cl)c2=O)c1` [Compound 18, 4-Chloro-2-(3,5-dimethylphenyl)-5-(2-morpholin-4-ylethylamino)-pyridazin-3-one], the IC50 in experiment [1] and in experiment [2] was greater than 10 µM throughout. Besides, in experiment [3] (setting [4]), the EC50 was roughly 10000 nM.
In turn, `O=c1c(Cl)c(NCCN2CCOCC2)cnn1-c1cc(C(F)(F)F)cc(C(F)(F)F)c1` [Compound 22, 2-(3,5-Bistrifluoromethylphenyl)-4-chloro-5-(2-morpholin-4-ylethyl-amino)pyridazin-3-one] yielded a half-inhibitory concentration (IC50) in experiment [1] greater than 10 µM. In addition, the concentration for a half-maximal effect (EC50) in experiment [3] (setting [4]) was greater than 10000 nM.
Consider `CCCn1cc2c(=O)n(C3CC(C)(C)CC(C)(C)C3)ncc2n1` [Compound 35, 2-Propyl-5-(3,3,5,5-tetramethylcyclohexyl)pyrazolo[3,4-d]pyridazin-4-one], for which the “CB2 Selectivity” value in experiment [1] is greater than 42. Moreover, the values for the IC50 in experiment [1] and in experiment [2] were 0.24 µM and greater than 10 µM, respectively. For the same compound, the concentration for a half-maximal effect (EC50) in experiment [3] (read-out: MVD Assay EC50 (nM)) came out at 1200 nM.
As to `CCCNc1cnn(-c2cc(Cl)cc(Cl)c2)c(=O)c1Cl` [Compound 25, 4-Chloro-2-(3,5-dichlorophenyl)-5-propylaminopyridazin-3-one], the IC50 in experiment [1] and in experiment [2] was greater than 10 µM each time. The 50% effective concentration (EC50) in experiment [3] (setting [4]) is greater than 10000 nM.
`CCCNc1cnn(-c2cc(C(F)(F)F)cc(C(F)(F)F)c2)c(=O)c1Cl` [Compound 20, 2-(3,5-Bistrifluoromethylphenyl)-4-chloro-5-propylamino-pyridazin-3-one]: the IC50 in experiment [1] and in experiment [2] was greater than 10 µM in each case. Further, the EC50 in experiment [3] (setting [4]) was greater than 10000 nM.
Consider `CC1(C)CC(n2ncc3nn(CCN4CCOCC4)cc3c2=O)CC(C)(C)C1` [Compound 37, 2-(2-Morpholin-4-ylethyl)-5-(3,3,5,5-tetramethylcyclohexyl)pyrazolo[3,4-d]pyridazin-4-one], for which, in experiment [1], the “CB2 Selectivity” value is recorded as greater than 7 and the IC50 amounted to 1.51 µM. This compound returned an IC50 in experiment [2] greater than 10 µM. In addition, the EC50 in experiment [3] (read-out: MVD Assay EC50 (nM)) turned out to be 1400 nM.
`CN(C)CCNc1cnn(-c2cc(C(F)(F)F)cc(C(F)(F)F)c2)c(=O)c1Cl` [Compound 23, 2-(3,5-Bistrifluoromethylphenyl)-4-chloro-5-(2-dimethylaminoethylamino)pyridazin-3-one]: the “MVD assay qualitative outcome” value in experiment [3] (setting [5]) is reported as “Increase”.
`CCCNc1cnn(-c2cc(C)ccc2C)c(=O)c1Cl` [Compound 26, 4-Chloro-2-(2,5-dimethylphenyl)-5-propylaminopyridazin-3-one] showed an IC50 in experiment [1] of 10 µM. Also, the 50% effective concentration (EC50) in experiment [3] (setting [4]) was greater than 10000 nM.
Consider `CN(C)CCNc1cnn(C2CC(C)(C)CC(C)(C)C2)c(=O)c1Cl` [Compound 12, 4-Chloro-5-(2-dimethylaminoethylamino)-2-(3,3,5,5-tetramethyl-cyclohexyl)pyridazin-3-one], for which, in experiment [1], the “CB2 Selectivity” value was greater than 49 and the half-inhibitory concentration (IC50) was found to be 0.204 µM. In experiment [2], this compound showed an IC50 greater than 10 µM. Moreover, in experiment [3] (setting [4]), the EC50 was determined as 2900 nM.
As for `CCCNc1cnn(C2CC(C)(C)CC(C)(C)C2)c(=O)c1` [Compound 8, 5-Propylamino-2-(3,3,5,5-tetramethyl-cyclohexyl)pyridazin-3-one], in experiment [1], the “CB2 Selectivity” value is on record as greater than 147 and the IC50 worked out at 0.068 µM. This compound also registered an IC50 in experiment [2] greater than 10 µM. In addition, in experiment [3] (setting [4]), the EC50 amounted to 440 nM.
Regarding `CN(C)CCn1cc2c(=O)n(C3CC(C)(C)CC(C)(C)C3)ncc2n1` [Compound 39, 2-(2-Dimethylaminoethyl)-5-(3,3,5,5-tetramethylcyclohexyl)pyrazolo[3,4-d]pyridazin-4-one], the IC50 in experiment [1] came out at 2.04 µM. In experiment [3] (setting [4]), the EC50 stood at 2900 nM.
As for `CNc1cnn(C2CC(C)(C)CC(C)(C)C2)c(=O)c1` [Compound 6, 5-Methylamino-2-(3,3,5,5-tetramethyl-cyclohexyl)pyridazin-3-one], in experiment [1], the “CB2 Selectivity” value is greater than 5 and the IC50 turned out to be 2.09 µM. Also, the concentration for half-maximal inhibition (IC50) in experiment [2] is greater than 10 µM. Moreover, in experiment [3] (setting [4]), the EC50 was determined as 10000 nM.
For `CCCNc1cnn(C(C)(C)C)c(=O)c1Cl` [Compound 24, 2-t-Butyl-4-chloro-5-propylamino-pyridazin-3-one], the 50% inhibitory concentration (IC50) in experiment [1] is greater than 10 µM. In addition, in experiment [3] (setting [4]), the concentration giving a half-maximal response (EC50) was greater than 10000 nM.
In the same order, the values of `CCCNc1cnn(Cc2ccccc2)c(=O)c1Cl` [Compound 30, 2-Benzyl-4-chloro-5-propylaminopyridazin-3-one] are greater than 10 µM and greater than 10000 nM.
`O=c1c(Cl)c(NCCN2CCOCC2)cnn1-c1cc(Cl)cc(Cl)c1` [Compound 28, 4-Chloro-2-(3,5-dichlorophenyl)-5-(2-morpholin-4-ylethylamino)-pyridazin-3-one] yielded a 50% inhibitory concentration (IC50) in experiment [1] greater than 10 µM. In addition, the “MVD assay qualitative outcome” value in experiment [3] (setting [5]) is given as “Increase”.
As for `CCCNc1cnn(C2CCCCC2)c(=O)c1Cl` [Compound 10, 4-Chloro-2-cyclohexyl-5-propylaminopyridazin-3-one], the concentration for half-maximal inhibition (IC50) in experiment [1] worked out at 10 µM. For the same compound, in experiment [3] (setting [4]), the EC50 was greater than 10000 nM.
In the same order, the values of `CC(C)(C)n1ncc(NCCN2CCOCC2)c(Cl)c1=O` [Compound 27, 2-t-Butyl-4-chloro-5-(2-morpholin-4-ylethylamino)-pyridazin-3-one] are greater than 10 µM and greater than 10000 nM.
Take `CCCNc1cnn(CC(C)(C)C)c(=O)c1Cl` [Compound 33, 4-Chloro-2-(2,2-dimethylpropyl)-5-propylaminopyridazin-3-one]: the EC50 in experiment [3] (setting [4]) was greater than 10000 nM.
In the case of `CC1(C)CC(n2ncc(O)cc2=O)CC(C)(C)C1` [Compound 1, 5-hydroxy-2-(3,3,5,5-tetramethyl-cyclohexyl)pyridazin-3-one], in experiment [1], the IC50 was found to be 1.82 µM. For the same compound, the concentration giving a half-maximal response (EC50) in experiment [3] (setting [4]) is 3700 nM.
In the same order, the values of `Cc1ccc(C)c(-n2ncc(NCCN3CCOCC3)c(Cl)c2=O)c1` [Compound 29, 4-Chloro-2-(2,5-dimethylphenyl)-5-(2-morpholin-4-ylethylamino)-pyridazin-3-one] are greater than 10 µM and greater than 10000 nM.
